From ChEMBL document CHEMBL4364325, “Synthesis, pharmacological and structural studies of 5-substituted-3-(1-arylmethyl-1,2,3,6-tetrahydropyridin-4-yl)-1H-indoles as multi-target ligands of aminergic GPCRs” (Eur J Med Chem, 2019)
The source made the active and inactive calls. The calls are words filed in the database; no cut-off is given here.

How the values were obtained:
D(2) dopamine receptor [1] = target: T1, D(2) dopamine receptor (Homo sapiens, UniProt P14416); assay: Displacement of [3H]Spiperone from human D2S receptor expressed in CHOK1 cell membranes measured after 120 mins
[2] = target: T2, 5-hydroxytryptamine receptor 1A (Homo sapiens, UniProt P08908); assay: Displacement of [3H]8-OH-DPAT from human 5HT1A receptor expressed in HEK293 cell membranes measured after 120 mins
T2 sequence (P08908 whole entry): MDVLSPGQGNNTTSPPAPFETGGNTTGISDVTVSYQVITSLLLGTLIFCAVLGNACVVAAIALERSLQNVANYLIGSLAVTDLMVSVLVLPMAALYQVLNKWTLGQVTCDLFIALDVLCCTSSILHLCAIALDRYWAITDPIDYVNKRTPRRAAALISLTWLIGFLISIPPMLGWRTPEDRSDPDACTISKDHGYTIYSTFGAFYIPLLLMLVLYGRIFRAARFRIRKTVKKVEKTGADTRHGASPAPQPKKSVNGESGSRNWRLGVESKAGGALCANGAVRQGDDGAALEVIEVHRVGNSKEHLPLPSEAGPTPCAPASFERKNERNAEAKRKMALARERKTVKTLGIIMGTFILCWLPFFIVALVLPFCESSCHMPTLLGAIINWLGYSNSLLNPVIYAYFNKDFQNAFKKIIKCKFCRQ

[3] = target: T3, 5-hydroxytryptamine receptor 2A (Homo sapiens, UniProt P28223); assay: Displacement of [3H]ketanserin from human 5HT2A receptor expressed in HEK293 cell membranes measured after 30 mins; type: cell-based
[4] = target: T3, 5-hydroxytryptamine receptor 2A; assay: Displacement of [3H]ketanserin from human 5HT2A receptor expressed in HEK293 cell membranes at 10 uM measured after 30 mins relative to control
D(2) dopamine receptor [5] = target: T1, D(2) dopamine receptor; assay: Displacement of [3H]Spiperone from human D2S receptor expressed in CHOK1 cell membranes at 10 uM measured after 120 mins relative to control
[6] = target: T4, 5-hydroxytryptamine receptor 1A (Homo sapiens) (UniProt P08908); assay: Agonist activity at human 5HT1A receptor expressed in HEK293 cell membranes assessed as maximal inhibition of forskolin induced cAMP production incubated for 24 hrs followed by forskolin addition by HTRF assay relative to control; type: functional, cell-based
T4 sequence (whole entry): T2 sequence (P08908 whole entry)

D(2) dopamine receptor [7] = target: T1, D(2) dopamine receptor; assay: Agonist activity at human D2 receptor expressed in CHOK1 cells assessed as inhibition of forskolin induced cAMP production at 0.1 nM to 100 uM incubated for 10 mins followed by forskolin addition and measured after 5 mins by HTRF assay; type: functional, cell-based
[8] = target: T3, 5-hydroxytryptamine receptor 2A; type: functional, cell-based
Description: Antagonist activity at human 5HT2A receptor expressed in CHOK1 cells assessed as inhibition of 5-HT induced inositol phosphate production incubated for 24 hrs followed by 5-HT addition by HTRF assay

Homo sapiens = species: Homo sapiens; assay: Selectivity ratio of Kb for human 5HT2A receptor expressed in CHOK1 cells to Kb for human D2S receptor expressed in CHOK1 cells; type: cell-based
D(2) dopamine receptor [9] = target: T1, D(2) dopamine receptor; assay: Competitive antagonist activity at human D2S receptor expressed in CHOK1 cells assessed as quinpirole mediated inhibition of forskolin induced cAMP accumulation by measuring parallel rightward shifts of quinpirole concentration-response curves incubated for 10 mins by HTRF assay based Schild plot analysis; type: functional, cell-based
D(2) dopamine receptor [10] = target: T1, D(2) dopamine receptor; assay: Antagonist activity at human D2S receptor expressed in CHOK1 cells assessed as suppression of dopamine-induced inhibition of forskolin-stimulated cAMP accumulation preincubated for 5 mins followed by dopamine and forskolin addition and measured after 10 mins by HTRF assay; type: functional, cell-based
[11] = target: T3, 5-hydroxytryptamine receptor 2A; assay: Antagonist activity at human 5HT2A receptor expressed in CHOK1 cells assessed as inhibition of inositol phosphate production incubated for 24 hrs followed by 5-HT addition by Cheng-Prusoff equation analysis; type: functional, cell-based
[12] = target: T3, 5-hydroxytryptamine receptor 2A; assay: Displacement of [3H]ketanserin from human 5HT2A receptor expressed in CHO cell membranes
D(1A) dopamine receptor = D(1A) dopamine receptor (Homo sapiens, UniProt P21728); assay: Displacement of [3H]SCH23390 from human D1 receptor expressed in commercial cell membranes
D(2) dopamine receptor [13] = target: T1, D(2) dopamine receptor; assay: Displacement of [3H]Spiperone from human D2S receptor expressed in CHO cell membranes
[14] = target: T2, 5-hydroxytryptamine receptor 1A; assay: Displacement of [3H]8-OH-DPAT from human 5HT1A receptor expressed in HEK293 cell membranes
D(3) dopamine receptor = D(3) dopamine receptor (Homo sapiens, UniProt P35462); assay: Displacement of [3H]Spiperone from human D3 receptor expressed in commercial cell membranes
Mus musculus [15] = assay: Antidepressant activity in Swiss mouse assessed as increase in latency time at 50 mg/kg, ip as acute administration measured during last 4 mins for 6 mins by forced swim test; type: functional, organism-based
Mus musculus [16] = assay: Antipsychotic activity in Swiss mouse assessed as decrease in amphetamine-induced hyperlocomotion at 50 mg/kg, ip pretreated for 60 mins followed by amphetamine administration and measured for 30 mins; type: functional, organism-based
Mus musculus [17] = assay: Cognition enhancing effect in Swiss mouse assessed as increase in latency index at 50 mg/kg, ip as acute administration measured after 24 hrs by passive avoidance test; type: functional, organism-based
Mus musculus [18] = assay: Antidepressant activity in Swiss mouse assessed as decrease in immobility time at 50 mg/kg, ip as acute administration measured during last 4 mins for 6 mins by forced swim test; type: functional, organism-based
[19] = Toxicity in Swiss mouse assessed as induction of motor coordination impairments at 50 mg/kg, ip measured after 60 mins by chimney test; type: organism-based; conditions: in vivo, 1 h

T1 sequence (P14416 whole entry): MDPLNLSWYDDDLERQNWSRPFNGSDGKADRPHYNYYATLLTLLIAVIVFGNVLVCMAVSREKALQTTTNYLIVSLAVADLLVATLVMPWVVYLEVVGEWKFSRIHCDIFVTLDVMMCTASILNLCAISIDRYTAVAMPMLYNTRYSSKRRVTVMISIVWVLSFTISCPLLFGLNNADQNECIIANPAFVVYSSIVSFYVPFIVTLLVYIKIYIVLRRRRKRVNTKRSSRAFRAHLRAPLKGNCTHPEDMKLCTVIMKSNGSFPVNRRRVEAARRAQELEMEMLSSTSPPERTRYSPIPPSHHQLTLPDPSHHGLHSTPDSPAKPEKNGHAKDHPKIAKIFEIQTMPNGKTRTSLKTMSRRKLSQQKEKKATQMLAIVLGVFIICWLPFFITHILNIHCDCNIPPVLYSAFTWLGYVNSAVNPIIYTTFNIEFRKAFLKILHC
T3 sequence (P28223 whole entry): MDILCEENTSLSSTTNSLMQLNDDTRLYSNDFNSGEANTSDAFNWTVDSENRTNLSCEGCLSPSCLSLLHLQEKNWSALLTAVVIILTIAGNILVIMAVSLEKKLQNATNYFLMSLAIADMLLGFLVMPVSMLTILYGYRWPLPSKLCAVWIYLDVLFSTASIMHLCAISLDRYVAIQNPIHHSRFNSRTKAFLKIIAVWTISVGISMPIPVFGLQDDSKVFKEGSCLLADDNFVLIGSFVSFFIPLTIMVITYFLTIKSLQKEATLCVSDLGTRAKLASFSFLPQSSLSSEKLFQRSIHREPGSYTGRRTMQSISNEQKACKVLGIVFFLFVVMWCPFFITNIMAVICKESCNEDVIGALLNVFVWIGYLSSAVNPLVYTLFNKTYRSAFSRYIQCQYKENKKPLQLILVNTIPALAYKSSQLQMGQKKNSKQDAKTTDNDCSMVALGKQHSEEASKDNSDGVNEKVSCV
Sequence of D(3) dopamine receptor (P35462 whole entry): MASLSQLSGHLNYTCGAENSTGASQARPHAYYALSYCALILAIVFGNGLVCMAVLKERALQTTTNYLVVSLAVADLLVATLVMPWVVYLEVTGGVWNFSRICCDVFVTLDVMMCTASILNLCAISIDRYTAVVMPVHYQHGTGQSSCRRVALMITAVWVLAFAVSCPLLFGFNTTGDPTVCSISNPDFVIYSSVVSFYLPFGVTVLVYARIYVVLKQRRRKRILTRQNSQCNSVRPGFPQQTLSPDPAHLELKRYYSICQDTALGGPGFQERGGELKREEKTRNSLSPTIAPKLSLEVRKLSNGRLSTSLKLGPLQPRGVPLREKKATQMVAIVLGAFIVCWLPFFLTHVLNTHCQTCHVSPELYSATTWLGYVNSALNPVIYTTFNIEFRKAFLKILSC
Sequence of D(1A) dopamine receptor (P21728 whole entry): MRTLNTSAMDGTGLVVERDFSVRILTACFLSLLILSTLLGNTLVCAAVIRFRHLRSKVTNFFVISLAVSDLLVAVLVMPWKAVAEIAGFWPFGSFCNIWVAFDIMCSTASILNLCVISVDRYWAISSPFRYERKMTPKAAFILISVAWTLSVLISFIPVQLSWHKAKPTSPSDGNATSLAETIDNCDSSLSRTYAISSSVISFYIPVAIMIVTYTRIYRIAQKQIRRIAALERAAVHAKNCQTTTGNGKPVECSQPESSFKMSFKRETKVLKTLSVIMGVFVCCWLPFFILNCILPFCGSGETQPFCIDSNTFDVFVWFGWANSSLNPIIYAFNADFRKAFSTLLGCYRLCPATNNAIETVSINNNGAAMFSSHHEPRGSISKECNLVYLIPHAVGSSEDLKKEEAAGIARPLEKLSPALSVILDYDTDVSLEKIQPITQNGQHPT

Compound | Ki (D(2) dopamine receptor [1]) [µM] | Ki [2] [µM] | inhibition [4] [%] | other results
C1=C(c2c[nH]c3ccccc23)CCN(Cc2ccco2)C1 | 0.257 | 0.752 |  | Ki [3]: 0.173 µM
COc1ccc2[nH]cc(C3=CCN(Cc4cccs4)CC3)c2c1 | 0.141 | 0.157 |  | Ki [3]: 1.89 µM
CC(C)Oc1ccc2[nH]cc(C3=CCN(Cc4ccco4)CC3)c2c1 |  | 0.431 | 5 | inhibition (D(2) dopamine receptor [5]): 51%
CCOc1ccc2[nH]cc(C3=CCN(Cc4cccs4)CC3)c2c1 | 0.166 | 0.139 | 0 | 
CC(C)Oc1ccc2[nH]cc(C3=CCN(Cc4ccccc4)CC3)c2c1 | 0.321 | 0.203 | 32 | 
NCCc1c[nH]c2ccc(C(N)=O)cc12 |  |  |  | Emax [6]: 95%
COc1ccc2[nH]cc(C3=CCN(Cc4ccco4)CC3)c2c1 | 0.142 | 0.195 | 15 | 
CCOc1ccc2[nH]cc(C3=CCN(Cc4ccco4)CC3)c2c1 |  | 0.486 | 47 | inhibition (D(2) dopamine receptor [5]): 62%
CC(C)Oc1ccc2[nH]cc(C3=CCN(Cc4cccs4)CC3)c2c1 | 0.465 | 0.214 | 14 | 
C1=C(c2c[nH]c3ccccc23)CCN(Cc2ccccc2)C1 | 0.0258 | 0.354 |  | Activity (D(2) dopamine receptor [7]): inactive; IC50 [8]: 2.62 µM; Selectivity ratio (Homo sapiens): 80; Activity (D(2) dopamine receptor [9]): Dose-dependent effect; Kb (D(2) dopamine receptor [9]): 0.00351 µM; pKb (D(2) dopamine receptor [9]): 8.45; Activity (D(2) dopamine receptor [10]): Dose-dependent effect; Emax [6]: 89%; Kb [11]: 0.279 µM; Ki [3]: 0.125 µM
COc1ccc(CN2CC=C(c3c[nH]c4ccc(OC(C)C)cc34)CC2)cc1 | 0.165 | 0.378 | 36 | 
COc1cccc(CN2CC=C(c3c[nH]c4ccccc34)CC2)c1 | 0.0269 | 0.243 |  | Activity (D(2) dopamine receptor [7]): inactive; IC50 [8]: 7.98 µM; Selectivity ratio (Homo sapiens): 200; Activity (D(2) dopamine receptor [9]): Dose-dependent effect; Kb (D(2) dopamine receptor [9]): 0.00495 µM; pKb (D(2) dopamine receptor [9]): 8.31; Activity (D(2) dopamine receptor [10]): Dose-dependent effect; Emax [6]: 76%; Kb [11]: 0.803 µM; Ki [3]: 0.194 µM
CCOc1ccc2[nH]cc(C3=CCN(Cc4ccc(OC)cc4)CC3)c2c1 | 0.132 | 0.194 | 38 | 
COc1ccc(CN2CC=C(c3c[nH]c4ccccc34)CC2)cc1 | 0.0873 | 0.243 | 52 | 
CCOc1ccc2[nH]cc(C3=CCN(Cc4cccc(OC)c4)CC3)c2c1 | 0.108 | 0.16 | 3 | 
COc1cccc(CN2CC=C(c3c[nH]c4ccc(OC)cc34)CC2)c1 | 0.112 | 0.135 | 24 | 
COc1ccc(CN2CC=C(c3c[nH]c4ccc(OC)cc34)CC2)cc1 | 0.148 | 0.134 | 48 | 
COc1ccc2[nH]cc(C3=CCN(Cc4cc(=O)[nH]c5ccccc45)CC3)c2c1 |  |  |  | Ki [12]: 0.358 µM; Ki (D(1A) dopamine receptor): 0.148 µM; Ki (D(2) dopamine receptor [13]): 0.058 µM; Ki [14]: 0.125 µM; Ki (D(3) dopamine receptor): 0.614 µM
C1=C(c2c[nH]c3ccccc23)CCN(Cc2cccs2)C1 | 0.0719 | 0.305 |  | Activity (D(2) dopamine receptor [7]): inactive; IC50 [8]: 2.41 µM; Activity (Mus musculus [15]): Active; Activity (Mus musculus [16]): Active; Activity (Mus musculus [17]): Active; Selectivity ratio (Homo sapiens): 50; Activity (Mus musculus [18]): Active; Activity (D(2) dopamine receptor [9]): Dose-dependent effect; Kb (D(2) dopamine receptor [9]): 0.00506 µM; pKb (D(2) dopamine receptor [9]): 8.3; Activity [19]: Non-Toxic; Activity (D(2) dopamine receptor [10]): Dose-dependent effect; Emax [6]: 67%; Kb [11]: 0.238 µM; Ki [3]: 0.171 µM
CCOc1ccc2[nH]cc(C3=CCN(Cc4ccccc4)CC3)c2c1 |  | 0.22 |  | Ki [3]: 2.1 µM
COc1ccc2[nH]cc(C3=CCN(Cc4ccccc4)CC3)c2c1 | 0.0627 | 0.139 | 41 | 
COc1cccc(CN2CC=C(c3c[nH]c4ccc(OC(C)C)cc34)CC2)c1 | 0.299 | 0.29 | 43 | 
